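Five compound concentrations were applied to cells in 96-well plates for 48 hours; endpoints were derived by simple linear interpolation of the resulting dose-response curve. GI50 is the concentration that inhibits growth by half. TGI: total growth inhibition.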

Among the test systems are A498 renal; HOP-62 NSCLC; OVCAR-8 ovarian; MOLT-4 leukemia; NCI-H522 lung; T-47D breast; TK-10 renal; SF-539 CNS; LOX IMVI melanoma; EKVX NSCLC.
Holding throughout (test): NCI-60 cell line screen, 48 h

Take `CCN(Cc1ccccc1)c1ccc(/C=C2\COc3ccccc3C2=O)cc1`: the GI50 was above 1000 µM in the test on A498 renal; above 1000 µM with HOP-62 NSCLC; above 1000 µM with OVCAR-8 ovarian; 105 µM with MOLT-4 leukemia; 156 µM in the test with NCI-H522 lung; 213 µM in the test on T-47D breast. The GI50 is above 1000 µM with TK-10 renal, above 1000 µM in the test on SF-539 CNS, 243 µM in the test on LOX IMVI melanoma and 538 µM in the test on EKVX NSCLC. In addition, the TGI with A498 renal, in the test on HOP-62 NSCLC, in the test on OVCAR-8 ovarian, in the test with MOLT-4 leukemia, in the test with NCI-H522 lung and in the test on T-47D breast was above 1000 µM each time. Also, the TGI in the test on TK-10 renal, in the test with SF-539 CNS, with LOX IMVI melanoma and in the test on EKVX NSCLC was above 1000 µM in each case.

`CCN(CC)CCN1C(=O)C2C3C(C)=CC(OC(C)=O)(CC3C)C2C1=O` (centres undefined): the GI50 with A498 renal, in the test on HOP-62 NSCLC, in the test on OVCAR-8 ovarian, with MOLT-4 leukemia, with NCI-H522 lung and in the test on T-47D breast was above 100 µM each time. Further, the GI50 in the test on TK-10 renal, with SF-539 CNS, in the test with LOX IMVI melanoma and with EKVX NSCLC was above 100 µM in each case. In addition, the TGI in the test on A498 renal, in the test with HOP-62 NSCLC, in the test with OVCAR-8 ovarian, in the test with MOLT-4 leukemia, in the test on NCI-H522 lung and in the test with T-47D breast was above 100 µM throughout. For the same compound, the TGI in the test on TK-10 renal, in the test on SF-539 CNS, with LOX IMVI melanoma and with EKVX NSCLC was above 100 µM in each case.

Turning to `Cc1ccc(NC(=O)c2ccoc2)cc1-c1ccc(C(=O)NCC2CC2)cc1`, the GI50 in the test on A498 renal was above 11.3 µM; in the test on HOP-62 NSCLC it was above 25 µM; in the test on OVCAR-8 ovarian, above 25 µM; in the test on MOLT-4 leukemia it was above 25 µM; in the test on NCI-H522 lung, above 15.9 µM; in the test with T-47D breast it was 7.16 µM. Further, the GI50 in the test on TK-10 renal is above 25 µM; with SF-539 CNS, above 25 µM; in the test with LOX IMVI melanoma, above 25 µM; in the test with EKVX NSCLC it was above 13.5 µM. In addition, the TGI with A498 renal, in the test with HOP-62 NSCLC, with OVCAR-8 ovarian, in the test with MOLT-4 leukemia, in the test with NCI-H522 lung and in the test with T-47D breast was above 25 µM each time. For the same compound, the TGI in the test on TK-10 renal, in the test on SF-539 CNS, in the test on LOX IMVI melanoma and with EKVX NSCLC was above 25 µM in each case.

`COC1C(OC(=O)/C=C/C=C/C=C/C=C/C(=O)O)CCC2(CO2)C1C1(C)OC1CC=C(C)C` (centres undefined): the TGI with A498 renal is above 100 µM; in the test on HOP-62 NSCLC it was above 100 µM; in the test with OVCAR-8 ovarian it was above 92 µM; in the test with MOLT-4 leukemia it was 78.7 µM; with T-47D breast, 70.2 µM; in the test on TK-10 renal it was above 100 µM. Besides, the results for the TGI in the test on SF-539 CNS and with EKVX NSCLC were above 100 µM and above 82.9 µM, respectively. Besides, the GI50 in the test with HOP-62 NSCLC is 0.198 µM; in the test on OVCAR-8 ovarian, 0.301 µM; with MOLT-4 leukemia it was 0.347 µM; in the test with NCI-H522 lung, 0.137 µM; with T-47D breast it was 0.326 µM; with SF-539 CNS, 0.347 µM. The GI50 was 0.183 µM in the test on LOX IMVI melanoma and 0.436 µM with EKVX NSCLC.

`CN1CCN(c2ccc3nc(-c4[nH]ncc4Nc4ncnc5[nH]ccc45)[nH]c3c2)CC1`: the GI50 with A498 renal was 0.253 µM; with HOP-62 NSCLC it was 0.381 µM; in the test on OVCAR-8 ovarian, 0.381 µM; in the test with MOLT-4 leukemia it was 0.429 µM; in the test on NCI-H522 lung, 0.196 µM; in the test on T-47D breast, 0.32 µM. Further, the GI50 with TK-10 renal is 1.11 µM; in the test on SF-539 CNS, 0.176 µM; in the test with LOX IMVI melanoma, 0.148 µM; in the test on EKVX NSCLC it was 0.34 µM. For the same compound, the TGI in the test on A498 renal was 0.588 µM; with HOP-62 NSCLC, 4.06 µM; in the test on OVCAR-8 ovarian it was above 31.1 µM; in the test on MOLT-4 leukemia, 14.4 µM; in the test with NCI-H522 lung it was 0.805 µM; in the test on T-47D breast it was above 52.4 µM. Besides, the TGI in the test with TK-10 renal was found to be 3.32 µM; with SF-539 CNS, 0.496 µM; in the test on LOX IMVI melanoma, 0.906 µM; in the test on EKVX NSCLC, 14.2 µM.

Take `CC(=O)Nc1ccc(CC[C@H]2CCC/C=C/[C@@H]3C[C@H](O)C[C@H]3[C@H](O)/C=C/C(=O)O2)cc1`: the GI50 is 0.016 µM in the test on A498 renal; 0.281 µM in the test on HOP-62 NSCLC; 0.0821 µM in the test on OVCAR-8 ovarian; 0.345 µM in the test on MOLT-4 leukemia; 0.261 µM with NCI-H522 lung; 0.29 µM in the test with T-47D breast. For the same compound, the GI50 was 0.172 µM in the test on TK-10 renal, 0.423 µM in the test with SF-539 CNS, 0.0912 µM in the test with LOX IMVI melanoma and 0.191 µM in the test on EKVX NSCLC. Besides, the TGI with A498 renal is 0.0475 µM; in the test on OVCAR-8 ovarian, above 100 µM; with MOLT-4 leukemia, 2.82 µM; with NCI-H522 lung, 0.654 µM; in the test with TK-10 renal, 1.06 µM; in the test with SF-539 CNS it was above 100 µM. Moreover, the TGI with LOX IMVI melanoma was 0.405 µM; with EKVX NSCLC, 4.33 µM.

On to `CCCN1CCC(Oc2cc(Nc3nc(Nc4cccc(F)c4C(N)=O)c4cc[nH]c4n3)c(OC)cc2Cl)CC1`, for which the GI50 is 2.95 µM with A498 renal; 1.31 µM with HOP-62 NSCLC; 4.11 µM in the test with OVCAR-8 ovarian; 3.48 µM in the test on MOLT-4 leukemia; 3.98 µM in the test on NCI-H522 lung; 1.32 µM with T-47D breast. Also, the GI50 in the test on TK-10 renal is 3.14 µM; with SF-539 CNS it was 4.13 µM; in the test with LOX IMVI melanoma, 1.57 µM; in the test with EKVX NSCLC, 3.1 µM. Moreover, the TGI with A498 renal is 6.47 µM; in the test on HOP-62 NSCLC, 4.36 µM; in the test on OVCAR-8 ovarian, 9.52 µM; in the test with MOLT-4 leukemia it was 7.97 µM; with NCI-H522 lung, 7.9 µM; in the test on T-47D breast, 3.12 µM. Further, the TGI in the test with TK-10 renal was 7.01 µM; in the test on SF-539 CNS it was 8.24 µM; in the test with LOX IMVI melanoma, 5.31 µM; in the test with EKVX NSCLC it was 7.41 µM.

For the origin of these results see PubChem BioAssay (NCI).
